Like-named read-outs stand apart in the source and are kept apart here.
Columns and labels:
cyclin E/CDK2 enzyme = molecular target: T1, cyclin E/CDK2 enzyme (Homo sapiens, UniProt P24941); assay: CDK2 ELISA kinase assay (phospho-Rb ser 795 detection); format: biochemical; settings: In Vitro Enzyme Assays, read-out: CDK2 IC50
T1 construct: made in house; host or cells: Sf9 insect cells, recombinant baculovirus
Procedure, shortened: (§1)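 Screening was done at 10 ug/ml compound. Each partially purified cyclin/CDK complex, produced in baculovirus-infected Sf9 cells, phosphorylated a coated GST-Rb C-terminal fragment with 200 μM ATP, and Ser795 phosphorylation was quantified by HRP-ELISA at 450 nm.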

HCT-116 = assay: Cytotoxicity assay (SRB), HCT-116; format: cell-based; settings: HCT116 cells, SRB, three days, read-out: In Vitro Cellular Activity IC50 HCT116
Procedure, shortened: (§2)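 Percentage survival is derived from SRB absorbance (540 nm) versus untreated cells. Exposures were 3 days, except 6 days for BT474, at 37 °C and 7% CO2.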

cyclin B/CDK1 enzyme = molecular target: T2, cyclin B/CDK1 enzyme (Homo sapiens, UniProt P06493); assay: CDK1 ELISA kinase assay (phospho-Rb ser 795 detection); format: biochemical; settings: In Vitro Enzyme Assays, read-out: CDK1 IC50
T2 construct: purchased New England BioLabs; host or cells: Sf9 insect cells, recombinant baculovirus
Procedure, shortened: as §1

cyclin D1/cdk 4 enzyme = molecular target: T3, cyclin D1/cdk 4 enzyme (Homo sapiens, UniProt P11802); assay: CDK4 ELISA kinase assay (phospho-Rb ser 795 detection); format: biochemical; settings: In Vitro Enzyme Assays, 200 μM ATP, read-out: CDK4 IC50
T3 construct: made in house; host or cells: Sf9 insect cells, recombinant baculovirus
Procedure, shortened: as §1

LoVo = assay: Cytotoxicity assay (SRB), LoVo; format: cell-based; settings: LoVo cells, SRB, three days, read-out: In Vitro Cellular Activity IC50 LOVO
Procedure, shortened: as §2

BT474 = assay: Cytotoxicity assay (SRB), BT474; format: cell-based; settings: BT474 cells, SRB, 6 days, read-out: In Vitro Cellular Activity IC50 BT474
Procedure, shortened: as §2

MCF-7 = assay: Cytotoxicity assay (SRB), MCF-7; format: cell-based; settings: MCF-7 cells, SRB, three days, read-out: In Vitro Cellular Activity IC50 MCF-7
Procedure, shortened: as §2

T3 sequence (P11802 whole entry, species assumed): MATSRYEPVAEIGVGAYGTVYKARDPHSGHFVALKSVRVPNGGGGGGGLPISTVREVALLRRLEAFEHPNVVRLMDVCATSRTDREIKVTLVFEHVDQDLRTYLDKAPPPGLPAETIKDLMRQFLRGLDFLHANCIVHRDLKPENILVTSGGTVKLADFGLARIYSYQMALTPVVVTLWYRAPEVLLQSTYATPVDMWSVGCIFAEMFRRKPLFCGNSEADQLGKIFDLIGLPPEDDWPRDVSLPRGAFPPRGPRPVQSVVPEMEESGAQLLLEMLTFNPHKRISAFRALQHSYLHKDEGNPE
T3 sequence (P24385 whole entry partner, species assumed): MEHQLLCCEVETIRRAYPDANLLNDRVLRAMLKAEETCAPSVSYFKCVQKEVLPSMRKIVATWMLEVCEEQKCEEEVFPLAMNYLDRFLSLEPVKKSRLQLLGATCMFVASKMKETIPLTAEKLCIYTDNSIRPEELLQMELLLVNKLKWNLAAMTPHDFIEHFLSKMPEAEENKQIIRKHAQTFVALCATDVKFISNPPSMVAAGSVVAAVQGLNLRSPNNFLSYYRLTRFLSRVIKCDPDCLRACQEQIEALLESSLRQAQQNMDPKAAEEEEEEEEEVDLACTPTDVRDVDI
T2 sequence (P06493 whole entry): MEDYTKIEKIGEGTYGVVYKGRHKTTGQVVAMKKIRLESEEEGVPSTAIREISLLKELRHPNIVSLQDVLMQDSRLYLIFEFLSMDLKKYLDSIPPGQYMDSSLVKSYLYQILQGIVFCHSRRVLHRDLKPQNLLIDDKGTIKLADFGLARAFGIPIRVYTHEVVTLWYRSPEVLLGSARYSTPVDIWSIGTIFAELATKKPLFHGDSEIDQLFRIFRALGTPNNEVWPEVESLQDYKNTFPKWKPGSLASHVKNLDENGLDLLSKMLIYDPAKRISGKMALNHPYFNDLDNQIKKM
T2 sequence (P14635 whole entry partner): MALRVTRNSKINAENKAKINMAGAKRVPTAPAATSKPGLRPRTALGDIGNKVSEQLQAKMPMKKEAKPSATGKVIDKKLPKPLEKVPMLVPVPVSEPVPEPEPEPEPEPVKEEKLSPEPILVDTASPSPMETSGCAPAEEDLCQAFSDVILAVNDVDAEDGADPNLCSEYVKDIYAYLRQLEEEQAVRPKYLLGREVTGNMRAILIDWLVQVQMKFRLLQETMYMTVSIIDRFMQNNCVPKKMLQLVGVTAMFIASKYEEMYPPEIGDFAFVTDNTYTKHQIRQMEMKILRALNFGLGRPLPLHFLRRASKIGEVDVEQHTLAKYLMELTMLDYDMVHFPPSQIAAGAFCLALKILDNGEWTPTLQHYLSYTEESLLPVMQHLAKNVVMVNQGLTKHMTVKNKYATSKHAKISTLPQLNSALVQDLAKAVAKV

IC50 (cyclin E/CDK2 enzyme) [µM] | IC50 (cyclin B/CDK1 enzyme) [µM] | IC50 (cyclin D1/cdk 4 enzyme) [µM] | Structure (SMILES) | IC50 (HCT-116; Homo sapiens, HCT-116, 72 h) [µM] | IC50 (LoVo; Homo sapiens, LoVo, 72 h) [µM] | IC50 (BT474; Homo sapiens, BT-474, 144 h) [µM] | IC50 (MCF-7; Homo sapiens, MCF7, 72 h) [µM] | IC50 (HCT-116) [µM] | IC50 (LoVo) [µM] | IC50 (BT474) [µM] | IC50 (MCF-7) [µM]
> 50 | > 50 | 0.05 | O=C1NC(=O)c2ccc(-c3ccsc3)cc2/C1=C/Nc1ccc(CN2CCCCC2)cc1 [Example 104, (4Z)-4-({[4-(Piperidin-1-ylmethyl)phenyl]amino}methylene)-6-thien-3-ylisoquinoline-1,3(2H,4H)-dione] | 1 | 1.3 | 3 | 3.4 |  |  |  | 
> 50 | > 50 | 0.12 | CN1CCN(c2ccc(N/C=C3\C(=O)NC(=O)c4ccc(-c5ccsc5)cc43)cc2)CC1 [Example 108, (4Z)-4-({[4-(4-Methylpiperazin-1-yl)phenyl]amino}methylene)-6-thien-3-ylisoquinoline-1,3(2H,4H)-dione] |  |  |  |  | 1.5 | 2.2 | 2.6 | 2.5
> 50 | > 50 | 7.4 | COc1ccc(-c2ccc3c(c2)/C(=C/Nc2ccc(N4CCN(C)CC4)cc2)C(=O)NC3=O)cc1 [Example 114, (4Z)-6-(4-methoxyphenyl)-4-({[4-(4-methylpiperazin-1-yl)phenyl]amino}methylene)-isoquinoline-1,3(2H,4H)-dione] | 1.9 | 6.5 | 5 | 6.3 |  |  |  | 
7.7 | 8.2 | 0.13 | CN1CCN(c2ccc(N/C=C3\C(=O)NC(=O)c4ccc(-c5ccc(C=O)cc5)cc43)cc2)CC1 [Example 115, 4-[(4Z)-4-({[4-(4-Methylpiperazin-1-yl)phenyl]amino}methylene)-1,3-dioxo-1,2,3,4-tetra-hydroisoquinolin-6-yl]benzaldehyde] | 1.6 | 6.5 | 6.7 | 4.7 |  |  |  | 
> 50 | > 50 | 27.8 | COc1cccc(-c2ccc3c(c2)/C(=C/Nc2ccc(CN4CCCCC4)cc2)C(=O)NC3=O)c1 [Example 117, (4Z)-6-(3-Methoxyphenyl)-4-({[4-(piperidin-1-ylmethyl)phenyl]amino}methylene)-isoquinoline-1,3(2H,4H)-dione] | 1.4 | 2.4 | 3 | 2.7 |  |  |  | 
34.5 | 42.5 | 0.35 | CCCOc1ccc(CN/C=C2\C(=O)NC(=O)c3ccc(Br)cc32)cc1O [Example 130, (4Z)-6-Bromo-4-{[(3-hydroxy-4-propoxybenzyl)amino]methylene}isoquinoline-1,3(2H,4H)-dione] | 0.73 | 0.94 | 0.65 | 4 |  |  |  | 
1.1 | 13.6 | 0.06 | O=C1NC(=O)c2ccc(Br)cc2/C1=C/NCc1ccc(OCCN2CCCC2)c(O)c1 [Example 143, (4Z)-6-Bromo-4-({[3-hydroxy-4-(2-pyrrolidin-1-ylethoxy)benzyl]amino}methylene) isoquinoline-1,3(2H,4H)-dione] | 3 | 8.8 | 5.7 | 4.3 |  |  |  | 
6.1 | 26.3 | 0.004 | CC(=O)Nc1ccc(CN/C=C2\C(=O)NC(=O)c3ccc(-c4ccsc4)cc32)cc1O [Example 145, N-[4-({[(Z)-(1,3-Dioxo-6-thien-3-yl-2,3-dihydroisoquinolin-4(1H)-′ylidene)methyl]amino}methyl)-2-hydroxyphenyl]acetamide] | 32.5 | 16 | > 50 | > 50 |  |  |  | 
27.7 | > 50 | 4.6 | O=C1NC(=O)c2ccc(Br)cc2/C1=C/NCc1ccc(OCc2ccccc2)c(O)c1 [Example 147, (4Z)-4-({[4-(Benzyloxy)-3-hydroxybenzyl]amino}methylene)-6-bromoisoquinoline-1,3(2H,4H)-dione] | 38 | 40 | > 50 | 36 |  |  |  | 
> 50 | > 50 | 7.2 | CCCCCCOc1ccc(CN/C=C2\C(=O)NC(=O)c3ccc(Br)cc32)cc1O [Example 150, (4Z)-6-Bromo-4-({[4-(hexyloxy)-3-hydroxybenzyl]amino}methylene)isoquinoline-1,3(2H,4H)-dione] | 49 | > 50 | > 50 | 46 |  |  |  | 
1.8 | 36.4 | 0.03 | CC(=O)Nc1ccc(CN/C=C2\C(=O)NC(=O)c3ccc(I)cc32)cc1O [Example 151, N-[2-Hydroxy-4-({[(Z)-(6-iodo-1,3-dioxo-2,3-dihydroisoquinolin-4(1H)-′ylidene)methyl]amino}methyl)phenyl]acetamide] | 1.3 | 1.9 | 0.9 | 6.6 |  |  |  | 
4.3 | 4.3 | 0.8 | CN1CCN(c2ccc(N/C=C3\C(=O)NC(=O)c4ccc(-c5ccc(C#N)cc5)cc43)cc2)CC1 [Example 153, 4-(4-{[4-(4-Methyl-piperazin-1-yl)-phenylamino]-methylene}-1,3-dioxo-1,2,3,4-tetrahydro-isoquinolin-6-yl)-benzonitrile] | 1.1 | 3.7 | 3.4 | 3.4 |  |  |  | 
> 50 | > 50 | 3.3 | CN1CCN(c2ccc(N/C=C3\C(=O)NC(=O)c4ccc(-c5cccc(F)c5)cc43)cc2)CC1 [Example 154, 6-(3-Fluoro-phenyl)-4-{[4-(4-methyl-piperazin-1-yl)-phenylamino]-methylene}-4H-isoquinoline-1,3-dione] | 2.2 | 3.2 | 3 | 2.7 |  |  |  | 
44.4 | > 50 | > 50 | COc1ccc(CN(C)/C=C2\C(=O)NC(=O)c3ccc(Br)cc32)cc1O [Example 163, (4Z)-6-Bromo-4-{[(3-hydroxy-4-methoxybenzyl)(methyl)amino]methylene}isoquinoline-1,3(2H,4H)-dione] | 38 | 34 | 38 | 38 |  |  |  | 
> 50 | > 50 | 0.2 | O=C1NC(=O)c2ccc(-c3ccco3)cc2C1=CNc1ccc(CN2CCCC2)cc1 [Example 169, 6-Furan-2-yl-4-[(4-pyrrolidin-1-ylmethyl-phenylamino)-methylene]-4H-isoquinoline-1,3-dione] | 2.6 | 5.2 | 1.8 | 2.5 |  |  |  | 

Structure (SMILES) | IC50 (cyclin E/CDK2 enzyme) [µM] | IC50 (cyclin B/CDK1 enzyme) [µM] | IC50 (cyclin D1/cdk 4 enzyme) [µM] | IC50 (HCT-116; Homo sapiens, HCT-116, 72 h) [µM] | IC50 (LoVo; Homo sapiens, LoVo, 72 h) [µM] | IC50 (BT474; Homo sapiens, BT-474, 144 h) [µM] | IC50 (MCF-7; Homo sapiens, MCF7, 72 h) [µM] | IC50 (HCT-116) [µM] | IC50 (LoVo) [µM] | IC50 (BT474) [µM] | IC50 (MCF-7) [µM]
CCCCOc1ccc(CN/C=C2\C(=O)NC(=O)c3ccc(Br)cc32)cc1O [Example 148, (4Z)-6-Bromo-4-{[(4-butoxy-3-hydroxybenzyl)amino]methylene}isoquinoline-1,3(2H,4H)-dione] | 31.7 | > 50 | 0.44 | 18 | 22 | 16 | 25 |  |  |  | 
CCOc1ccc(CN/C=C2\C(=O)NC(=O)c3ccc(Br)cc32)cc1O [Example 166, (4Z)-6-Bromo-4-{[(4-ethoxy-3-hydroxybenzyl)amino]methylene}isoquinoline-1,3(2H,4H)-dione] | 45.5 | > 50 | 0.03 | 1.3 | 2.2 | 1.4 | 19 |  |  |  | 

Source: patent US7713994B2 (Wyeth LLC, priority 2005, dated 2010)
